US20060127990A1, “4'-thionucleotide” (GENETICLAB CO., LTD, priority 2002, published 2006)

Experiments:
T7 RNA polymerase [1] = molecular target: T1, T7 RNA polymerase (Escherichia phage T7, UniProt P00573); assay: Incorporation of 4′-thio UTP and 4′-thio CTP into RNA chain with T7 RNA polymerase (30mer transcript); type: biochemical; conditions: 0.4 mM NTPs, replacing the native NTP, 47mer double-stranded DNA template, 37° C., 3 hours
Description: Incorporation experiment using T7 RNA polymerase was performed with 4′-thio UTP and 4′-thio CTP. In this experiment, 47mer double-stranded DNA containing T7 promoter sequence was used (FIG. 9).
The reaction was conducted in 20 μL of a solution containing 40 mM Tris-HCl with pH 8.0, 8 mM MgCl2, 2 mM spermidine, 5 mM DTT, 0.4 mM NTPS, 17 nM [γ-^32P]GTP, 2.0 μM template DNA and 100 U T7 RNA polymerase. NTPs were (1) ATP, GTP, CTP and UTP, (2) using 4′-thio UTP instead of UTP, 3) using 4′-thio CTP instead of CTP, and 4) UTP and CTP were replaced with 4′-thio UTP and 4′-thio CTP. The reaction solution was incubated at 37° C. for 3 hours, and the reaction was stopped. Subsequently, electrophoresis was performed with 20% modified polyacrylamide gel (30×40×0.05 cm, 1800 V, 1 hour, 1×TEB), and analysed by autoradiography.
A relative transcription efficiency is shown in FIG. 10 with a transcription efficiency of native NTPs being defined as 100.

T7 RNA polymerase [2] = molecular target: T1, T7 RNA polymerase; assay: Incorporation of 4′-thio UTP into RNA chain with T7 RNA polymerase (26mer transcript); type: biochemical; conditions: 0.4 mM NTPs (GTP+ATP+CTP+4′-thio UTP), 100 U T7 RNA polymerase, 37° C., 3 hours; compared with lane 4 (native UTP)
Description: Incorporation experiment using T7 RNA polymerase was performed with 4′-thio UTP obtained in Example 9. In this experiment, double-stranded DNA containing T7 promoter sequence was used (FIG. 7).
The reaction was conducted in 20 μL of a solution containing 40 mM Tris-HCl with PH 8.0, 8 mM MgCl2, 2 mM spermidine, 5 mM DTT, 0.4 mM NTPs, 17 nM [γ-^32P]GTP, 2.0 μM template DNA and 100 U T7 RNA polymerase. NTPs were (1) GTP, (2) GTP+ATP, (3) GTP+ATP+CTP, (4) GTP+ATP+CTP+UTP, and (5) GTP+ATP+CTP+4′-thio UTP, respectively. The reaction solution was incubated at 37° C. for 3 hours, and the reaction was stopped. Subsequently, electrophoresis was performed with 20% modified polyacrylamide gel (30×40×0.05 cm, 1800 V, 1 hour, 1×TEB), and analysed by autoradiography.
In lane 1, bands corresponding to 2mer and 3mer of G and a rudder were observed. In lane 2, an expected band with chain elongation stopped at 6mer was observed, and a minor band elongated by one residue was observed. In lane 3, an expected band with chain elongation stopped at 9mer was observed, and a minor band elongated by one residue was observed. In lane 4, a band of 26mer full-length product was observed.

T1 sequence (P00573 whole entry): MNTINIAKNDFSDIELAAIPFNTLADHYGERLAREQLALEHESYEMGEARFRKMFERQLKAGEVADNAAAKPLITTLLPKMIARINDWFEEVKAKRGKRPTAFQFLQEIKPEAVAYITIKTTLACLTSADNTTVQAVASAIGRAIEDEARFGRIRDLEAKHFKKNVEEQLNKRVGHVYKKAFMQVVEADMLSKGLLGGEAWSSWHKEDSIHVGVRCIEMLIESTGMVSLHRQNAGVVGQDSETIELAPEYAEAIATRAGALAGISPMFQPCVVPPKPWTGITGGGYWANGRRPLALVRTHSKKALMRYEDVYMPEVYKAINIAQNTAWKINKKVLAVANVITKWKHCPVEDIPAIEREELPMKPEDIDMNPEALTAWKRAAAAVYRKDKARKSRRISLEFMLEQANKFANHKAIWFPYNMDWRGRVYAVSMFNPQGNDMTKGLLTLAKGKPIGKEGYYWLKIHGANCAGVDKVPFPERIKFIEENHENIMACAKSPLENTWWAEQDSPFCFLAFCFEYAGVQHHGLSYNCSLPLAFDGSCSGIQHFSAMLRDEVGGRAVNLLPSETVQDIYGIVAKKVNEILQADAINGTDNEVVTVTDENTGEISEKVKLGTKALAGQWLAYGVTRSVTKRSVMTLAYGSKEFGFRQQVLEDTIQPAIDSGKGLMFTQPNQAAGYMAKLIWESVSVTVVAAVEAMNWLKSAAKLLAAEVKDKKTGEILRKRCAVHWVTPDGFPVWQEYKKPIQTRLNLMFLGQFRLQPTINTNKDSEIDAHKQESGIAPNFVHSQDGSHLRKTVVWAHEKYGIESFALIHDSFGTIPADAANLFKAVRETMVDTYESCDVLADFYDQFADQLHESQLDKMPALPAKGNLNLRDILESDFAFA

SMILES | recognition by T7 RNA polymerase as substrate and incorporation into RNA chain (30mer full-length product) (T7 RNA polymerase [1]) | band of full-length product (26mer RNA) when used instead of UTP (T7 RNA polymerase [2])
Nc1ccn([C@@H]2S[C@H](COP(=O)(O)OP(=O)(O)OP(=O)(O)O)[C@@H](O)[C@H]2O)c(=O)n1 [4′-thio CTP, 4′-Thiocytidine 5′-triphosphate] | incorporated into RNA chain efficiently | 
O=c1ccn([C@@H]2S[C@H](COP(=O)(O)OP(=O)(O)OP(=O)(O)O)[C@@H](O)[C@H]2O)c(=O)[nH]1 [4′-thio UTP, 4′-Thiouridine 5′-triphosphate] | incorporated into RNA chain efficiently | approximately the same amount as in lane 4
